Experimental data: BigSolDB 2.1

OCCCCCCO
solubility (mole fraction)
Conditions	283.15 K	288.15 K	293.15 K	298.15 K	303.15 K
in DMAc	0.0205	0.0298	0.0469	0.0688	0.0939
in methanol	0.365	0.428	0.51	0.585	0.698
in n-butanol	0.316	0.389	0.479	0.577	0.689
